Tests used:
[1] = tested on: ZIKV replicon; assay: ZIKV replicon luminescence assay in Huh-7.5 replicon-containing cells; assay type: cell-based, Zika virus; conditions: Huh-7.5 ZIKV replicon cells, 48 h
Procedure: Error bars represent SD among 3 biological replicates.
Cultured Huh-7.5.1 cells and Huh-7.5 ZIKV replicon-containing cells (Xie 2016) were treated with various concentrations of CA or putative ZIKV replication inhibitor NITD-008 (Deng 2016) for 48 h. Cells were then washed with PBS and ViviRen™ Live Cell Substrate (Promega) was added to a final concentration of 30 μM. Following incubation for 2 min at room temperature, luminescence was measured. Curve fitting was performed in Igor Pro (WaveMetrics) using a sigmoidal fit algorithm (FIG. 5).

[2] = molecular target: T1, V-ATPase (Homo sapiens, UniProt P27449); assay: Acridine orange vital staining of intracellular organelles of A549 cells (V-ATPase inhibition); assay type: cell-based; conditions: CA 250 nM, 6 h
T1 construct: endogenous in cells; host or cells: A549 cells (ATCC #CCL-185, or acquired from Synthego)
Procedure: Cultured A549 cells were treated with 1 μM CD, or 250 nM CA or the V-ATPase specific inhibitor bafilomycin A1 (100 nm) for 6 h. After removing the culture medium and washing the cells with Hanks' balanced salt solution (HBSS), a 1:4000 dilution of acridine orange (2% solution, Polysciences Inc.) in HBSS was added to cells and incubated for 10 min. Cells were then washed again with HBSS and analyzed by fluorescence microscopy. In color images, a red color corresponds to the protonated version of the molecule, which permeates acidic organelles and becomes sequestered following protonation. One representative of 3 biological replicates is shown.

[3] = tested on: ZIKV; assay: Secreted NS1 (sNS1) ELISA, ZIKV-infected A549 cells; assay type: cell-based, Zika virus; conditions: Zika virus, 24 h pre-treatment, MOI 1.0, 2 d
Procedure: (§1) Error bars represent SD among 2 biological replicates.
(§2) Cultured A549 cells were treated with various concentrations of CA or PF-429242 for 24 h before being washed with PBS and inoculated with ZIKV (ZIKV strain VR 1843, Puerto Rico, 2015; ATCC) at MOI 1.0 for 1 h. Following the removal of the inoculum, cells were incubated in fresh media for 2 d before the supernatant was collected, clarified, and secreted NS1 protein abundance was measured by an ELISA kit (BioFront Technologies) according to the manufacturer's instructions. Curve fitting was performed in Igor Pro (WaveMetrics) using a hyperbolic fit algorithm (FIG. 4; upper and middle plots) and IC50 and TI values obtained. IC50 and TI values were also obtained for CA via plaque assay (PFU; FIG. 4, lower plot). FIG. 4 (upper plot) is an ED50 curve for the PF inhibitor based on the detection of secreted Non-Structural protein 1 (sNS1), secreted viral biomarker. sNS1 was detected using an Elisa test (commercially available). FIG. 4 (middle plot) is an ED50 curve for CA based on the detection of secreted Non-Structural protein 1 (sNS1), secreted viral biomarker. sNS1 was detected using an Elisa test (commercially available).

[4] = tested on: DENV-4; assay: DENV-4 intracellular dsRNA (Cellomics) in A549 cells; assay type: cell-based, dengue virus
Procedure: (§3) Error bars represent SD among 3 biological replicates. Cultured A549 cells were treated with the indicated concentrations of CA (1=Mock, 2=0 M, 3=1 μM, 4=5 M, 5=10 M, 6=20 µM) or PF-429242 (7=15 M) for 1 h before being washed with PBS and infected with DENV-2, DENV-3, or DENV-4 at MOI 1.0 for 48 h. Cells were labeled for viral dsRNA with […] then imaged and quantified using the Cellomics ArrayScan™ VTI High Content Screening system.
(§4) Viruses. ZIKV: ZIKV strain PRVABC59 (Puerto Rico/2015) (ATCC #VR-1843) was used in these studies, specifically three separate stocks generated in Vero E6 cells with titres of 1.35×10^8 pfu/mL, 1.0×10^7 pfu/mL, and 2.9×10^6 pfu/mL respectively. DENV strains: DENV-2 strain NGC, DENV-3 strain H-87, and DENV-4 strain H-241 were kindly provided by National Microbiology Laboratory, Winnipeg, MB, Canada.
(§5) A549 cells were seeded onto Corning tissue culture treated 96 well plates and incubated at 37 degrees Celsius and 5% CO2 for 24 h. CA was diluted in MEM complete media to concentrations of 1 μM, 5 μM, 10 μM, 20 μM, including a 0 μM condition. Diluted CA was added to each well and cells were incubated at 37 degrees Celsius and 5% CO2 for 1 h. After 1 h, cells were washed once with PBS to remove CA and were then infected with DENV-2, -3 or -4 at an MOI of 1. […] Labeled 96 well plates were imaged and quantified using the Cellomics ArrayScan VTI. […]

[5] = tested on: DENV-2, DENV-3, DENV-4; assay: DENV-2, -3, -4 dsRNA imaging in Huh7.5.1 and U87 cells; assay type: cell-based, dengue virus; conditions: Huh 7.5.1 cells and U87 cells, FIG. 9
Procedure: Cultured Huh7.5.1 cells (left plots) or U87 cells (right plots) were treated with the indicated concentrations of CA (1=Mock, 2=0 M, 3=1 M, 4=5 M, 5=10 M, 6=20 µM) or PF-429242 (7=15 M) for 1 h before being washed with PBS and infected with DENV-2, DENV-3, or DENV-4 at MOI 1.0 for 48 h. Cells were labeled for viral dsRNA with […] then imaged and quantified using the Cellomics ArrayScan™ VTI.

[6] = tested on: DENV-3; assay: DENV-3 intracellular dsRNA (Cellomics) in A549 cells; assay type: cell-based, dengue virus
Procedure: as §3, §4, §5

[7] = tested on: ZIKV; assay: ZIKV viral dsRNA imaging (Cellomics ArrayScan VTI) in A549 cells; assay type: cell-based, Zika virus; conditions: 15 μM, 1 h pre-treatment, MOI 1, 48 h
[8] = tested on: ZIKV; assay: Plaque assay (PFU) dose response, ZIKV-infected A549 cells; assay type: cell-based; conditions: Zika virus
Procedure: as §1, §2
Bottom: ED50 curve for CA based on the detection of secreted infectious virus particles, as viral biomarker. Titer of the infectious virus particles (Plaque forming units) determined using plaque assays.

[9] = tested on: DENV-2; assay: DENV-2 intracellular dsRNA (Cellomics) in A549 cells; assay type: cell-based, dengue virus
Procedure: as §3, §4, §5

T1 sequence (P27449 whole entry, looked up): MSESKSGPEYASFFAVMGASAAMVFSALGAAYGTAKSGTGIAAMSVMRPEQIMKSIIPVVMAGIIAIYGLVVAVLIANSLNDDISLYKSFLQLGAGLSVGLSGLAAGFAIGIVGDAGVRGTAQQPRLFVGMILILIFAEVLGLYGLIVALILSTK

COc1c2n(c3ccccc13)[C@]1(O)C(=O)N(C)C(=O)[C@]1(O)c1c-2[nH]c2ccc(Cl)cc12 [CA, (11S,15R)-7-chloro-11,15-dihydroxy-23-methoxy-13-methyl-3,13,16-triazahexacyclo[14.7.0.0^2,10.0^4,9.0^11,15.0^17,22]tricosa-1(23),2(10),4(9),5,7,17,19,21-octaene-12,14-dione]
ZIKV replication inhibition [1]: not a ZIKV replication inhibitor
vital staining with acridine orange of intracellular organelles [2]: inhibited vital staining
IC50 [3]: 80 nM
activity against Dengue virus 4 in vitro ([4]; 1-20 μM, FIG. 8 lower plots): good activity
IC50 ([4]; Dengue virus, DENV4, DENV-4, intracellular dsRNA (Cellomics)): 3.2 µM
activity against Dengue virus 2, 3 and 4 [5]: broad-spectrum anti-flaviviral activity
activity against Dengue virus 3 in vitro ([6]; 1-20 μM, FIG. 8 middle plots): good activity
IC50 ([6]; Dengue virus, DENV3, DENV-3, intracellular dsRNA (Cellomics)): 1500 nM
activity against ZIKV (viral dsRNA) [7]: good activity
IC50 [8]: 110 nM
activity against Dengue virus 2 in vitro ([9]; 1-20 μM, FIG. 8 upper plots): good activity
IC50 ([9]; Dengue virus, DENV2, DENV-2, intracellular dsRNA (Cellomics)): 2300 nM

Source: patent publication US12643899B2, “Antiviral agents, uses thereof and methods for their preparation” (The University of British Columbia, priority 2020, dated 2026)
